# Experimental data published in patent US7923563B2, “Amorphous object of cinnamide compound” (Eisai R&D Management Co., Ltd., priority 2004, dated 2011).
# Assays:
# [1] = Solubility test of the crystalline compound (1) and the amorphous compound (1) (apparent solubility in buffer, HPLC); type: physicochemical; conditions: room temperature, 30 minutes standing after ultrasonication
# Procedure: An excess amount of each sample was added to 0.5 mL of the following each test solution, which was then dispersed and dissolved by a ultrasonication operation for several minutes (about 3 minutes). After allowing to stand at room temperature for 30 minutes, the supernatant was separated by a centrifugation operation; the sample concentration in the supernatant as determined by an HPLC method was defined as an apparent solubility in each test solution.
# pH 5: Diluted Mcllvaine buffer solution (Kanto Chemical Co. Inc.)
# pH 7: GIBCO™ (Dulbecco's phosphate-buffered saline, Invitrogen Corporation)
# [2] = Hygroscopicity test of the amorphous compound (1) (microbalance, weight change vs relative humidity); type: physicochemical; conditions: 25° C., relative humidities of 5% to 90%; FIG. 3
# Procedure: The hygroscopicity of the amorphous substance was evaluated using a microbalance (MB300W, VTI Corporation, USA). A sample placed in a glass holder was suspended in a device adjusted at 25° C., and a change in the weight thereof was followed over relative humidities of 5% to 90%. The sample weight was measured at measuring points (of the relative humidities) with an interval of 2 minutes; the weight at the time point of the amount of change reaching within 0.2% was defined as the final value.
# [3] = pH 5 buffer (diluted McIlvaine buffer solution)
# [4] = pH 7 buffer (Dulbecco's phosphate-buffered saline)
"Apparent solubilites [1, 3]","Apparent solubilites [1, 4]",Hygroscopicity (weight change over relative humidity) [2],SMILES
0.225 mg/mL,0.011 mg/mL,low hygroscopicity,"COc1cc(/C=C2\CCCN([C@@H](C)c3ccc(F)cc3)C2=O)ccc1-n1cnc(C)c1 [Amorphous compound (1), (3E)-1-[(1S)-1-(4-fluorophenyl)ethyl]-3-[3-methoxy-4-(4-methyl-1H-imidazol-1-yl)benzylidene]piperidin-2-one]"
0.077 mg/mL,0.003 mg/mL,–,"COc1cc(/C=C2\CCCN([C@@H](C)c3ccc(F)cc3)C2=O)ccc1-n1cnc(C)c1 [Crystalline compound (1), (3E)-1-[(1S)-1-(4-fluorophenyl)ethyl]-3-[3-methoxy-4-(4-methyl-1H-imidazol-1-yl)benzylidene]piperidin-2-one]"
